Numbering of substitutions follows the chain as printed.
Experiments:
[1] = target: T1, Ftp_Ec (Escherichia coli, UniProt P0AB85, Y79N); assay: crystal structure, […]-1.[…] A; also inhibits FAD pyrophosphatase activity; assay type: binding; conditions: two Mg2+ bound; active site
T1 construct: gene apbE; recombinant, ligand-free preparation as in Deka et al. 2013a; signal peptide removed; crystal model residues about 12-341
T1 sequence (P0AB85 21-351 Y79N): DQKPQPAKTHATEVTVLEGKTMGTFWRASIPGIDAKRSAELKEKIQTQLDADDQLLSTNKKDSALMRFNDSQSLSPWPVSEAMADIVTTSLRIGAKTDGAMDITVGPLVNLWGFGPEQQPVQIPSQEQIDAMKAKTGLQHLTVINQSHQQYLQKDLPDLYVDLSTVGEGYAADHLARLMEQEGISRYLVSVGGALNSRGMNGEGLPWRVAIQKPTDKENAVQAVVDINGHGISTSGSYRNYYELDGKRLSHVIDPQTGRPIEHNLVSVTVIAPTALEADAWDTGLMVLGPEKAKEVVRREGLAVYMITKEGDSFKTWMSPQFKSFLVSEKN

[2] = target: T2, Ftp_Hd ([Haemophilus] ducreyi, UniProt Q7VNU3); assay: UV-visible spectrum of protein as isolated; assay type: binding; conditions: co-purified flavin, nonstoichiometric; buffer A, pH 7.5
T2 construct: gene apbE; residues 17-343, signal peptide and acylated Cys removed, N-terminal TEV-cleavable His6 tag (pSpeedET), E. coli
T2 sequence (Q7VNU3 16-342): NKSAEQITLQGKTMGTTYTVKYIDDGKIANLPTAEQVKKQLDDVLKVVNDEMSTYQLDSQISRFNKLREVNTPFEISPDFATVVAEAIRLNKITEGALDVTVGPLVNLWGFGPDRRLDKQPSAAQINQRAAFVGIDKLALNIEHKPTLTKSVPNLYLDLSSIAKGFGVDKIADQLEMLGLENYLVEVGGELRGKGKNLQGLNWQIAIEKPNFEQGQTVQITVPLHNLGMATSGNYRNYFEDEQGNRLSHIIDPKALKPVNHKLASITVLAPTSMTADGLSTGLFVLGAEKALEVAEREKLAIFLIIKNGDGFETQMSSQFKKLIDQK

[3] = target: T3, Ftp_Ef (Enterococcus faecalis, UniProt Q82Z24); assay: FAD pyrophosphatase assay, FMN fluorescence; assay type: biochemical; conditions: 10 uM FAD, 5 mM MgCl2, pH 7.5; single turnover
T3 construct: gene EF_3255; residues 21-356, signal peptide and acylated Cys removed, N-terminal TEV-cleavable His6 tag (pSpeedET), E. coli
T3 sequence (Q82Z24 22-355): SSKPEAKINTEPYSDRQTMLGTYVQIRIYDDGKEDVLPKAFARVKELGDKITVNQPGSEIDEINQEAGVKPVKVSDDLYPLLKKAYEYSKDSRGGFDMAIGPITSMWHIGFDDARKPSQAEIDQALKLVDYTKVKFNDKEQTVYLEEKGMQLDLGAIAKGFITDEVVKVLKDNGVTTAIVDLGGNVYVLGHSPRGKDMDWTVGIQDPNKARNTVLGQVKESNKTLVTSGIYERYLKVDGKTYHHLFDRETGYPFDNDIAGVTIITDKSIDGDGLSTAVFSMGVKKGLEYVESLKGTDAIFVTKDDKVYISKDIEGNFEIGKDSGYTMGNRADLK

[4] = target: T4, Ftp_Ab (Alcanivorax borkumensis, UniProt Q0VQR2); assay: UV-visible spectrum of protein as isolated; assay type: binding; conditions: co-purified flavin, nonstoichiometric; buffer A, pH 7.5
T4 construct: gene apbE; residues 21-338, signal peptide and acylated Cys removed, N-terminal TEV-cleavable His6 tag (pSpeedET), E. coli
T4 sequence (Q0VQR2 20-337): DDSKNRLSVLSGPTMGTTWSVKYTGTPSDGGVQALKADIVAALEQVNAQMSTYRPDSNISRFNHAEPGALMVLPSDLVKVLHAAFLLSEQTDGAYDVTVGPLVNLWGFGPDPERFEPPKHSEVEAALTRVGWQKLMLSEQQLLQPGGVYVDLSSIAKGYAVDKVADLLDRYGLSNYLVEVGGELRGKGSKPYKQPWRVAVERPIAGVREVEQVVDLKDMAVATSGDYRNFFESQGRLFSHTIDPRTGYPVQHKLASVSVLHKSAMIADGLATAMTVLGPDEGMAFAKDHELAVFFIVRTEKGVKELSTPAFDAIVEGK

[5] = target: T5, Ftp_Ec (Escherichia coli, UniProt P0AB85); assay: fluorescence decrease on FAD binding; flavinylation gel; assay type: biochemical; conditions: binds FAD without hydrolysis; FMN donor to RnfG_Ec with 5 mM MgCl2, pH 7.5
T5 construct: gene apbE; recombinant, ligand-free preparation as in Deka et al. 2013a; signal peptide removed; crystal model residues about 12-341
T5 sequence (P0AB85 21-351): T1 sequence (P0AB85 21-351 Y79N) with N59Y

[6] = target: T6, Ftp_Td (Treponema denticola, UniProt Q73JG1); assay: FAD pyrophosphatase assay, FMN fluorescence; assay type: biochemical; conditions: 10 uM FAD, 5 mM MgCl2, pH 7.5; single turnover
T6 construct: gene TDE_2614; residues 28-372, signal peptide and acylated Cys removed, N-terminal TEV-cleavable His6 tag (pSpeedET), E. coli
T6 sequence (Q73JG1 28-371): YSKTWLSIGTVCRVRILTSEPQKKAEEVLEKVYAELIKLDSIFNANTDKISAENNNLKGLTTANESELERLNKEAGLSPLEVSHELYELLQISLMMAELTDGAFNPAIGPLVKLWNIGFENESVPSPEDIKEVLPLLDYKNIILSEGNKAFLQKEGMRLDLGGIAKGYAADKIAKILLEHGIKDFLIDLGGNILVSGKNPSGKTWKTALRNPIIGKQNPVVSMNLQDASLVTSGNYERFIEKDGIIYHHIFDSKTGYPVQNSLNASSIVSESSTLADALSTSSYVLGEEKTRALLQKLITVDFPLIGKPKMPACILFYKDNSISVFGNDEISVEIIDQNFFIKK

[7] = target: T7, Ftp_Lm (Listeria monocytogenes, UniProt A0A0H3GJF7); assay: FAD pyrophosphatase assay, FMN fluorescence; assay type: biochemical; conditions: 10 uM FAD, 5 mM MgCl2, pH 7.5; single turnover
T7 construct: gene LMRG_02181; residues 22-361, signal peptide and acylated Cys removed, N-terminal TEV-cleavable His6 tag (pSpeedET), E. coli
T7 sequence (A0A0H3GJF7 21-360): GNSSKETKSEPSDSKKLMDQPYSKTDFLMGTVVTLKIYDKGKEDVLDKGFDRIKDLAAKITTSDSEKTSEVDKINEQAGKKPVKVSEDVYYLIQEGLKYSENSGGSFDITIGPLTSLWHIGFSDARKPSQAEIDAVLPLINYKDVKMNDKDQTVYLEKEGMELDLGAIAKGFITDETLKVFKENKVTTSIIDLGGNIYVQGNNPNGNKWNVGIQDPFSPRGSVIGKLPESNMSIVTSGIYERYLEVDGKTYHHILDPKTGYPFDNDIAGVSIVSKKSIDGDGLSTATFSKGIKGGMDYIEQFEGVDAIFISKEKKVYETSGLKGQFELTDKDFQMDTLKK

[8] = target: T8, NqrC_So (Shewanella oneidensis, UniProt Q8EID8); assay: crystal structure, […] A; assay type: binding; conditions: covalent phosphoester-threonyl-FMN at T225, formed in vitro by Ftp_So from FAD and Mg2+
T8 construct: gene nqrC; residues 32-265, without N-terminal membrane anchor; recloned into pProEx HTb; His tag cut with TEV after flavinylation
T8 sequence (Q8EID8 32-264): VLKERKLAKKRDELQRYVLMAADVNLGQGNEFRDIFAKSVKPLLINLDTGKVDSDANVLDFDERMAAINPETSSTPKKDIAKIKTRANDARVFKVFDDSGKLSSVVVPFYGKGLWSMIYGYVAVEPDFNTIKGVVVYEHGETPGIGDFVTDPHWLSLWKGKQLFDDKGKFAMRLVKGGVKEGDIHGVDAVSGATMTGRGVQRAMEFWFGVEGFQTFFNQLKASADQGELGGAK

Nc1ncnc2c1ncn2[C@@H]1O[C@H](COP(=O)(O)OP(=O)(O)O)[C@@H](O)[C@H]1O [ADP]
crystal structure, 1.85-1.90 A; also inhibits FAD pyrophosphatase activity [1]: we obtained a crystal structure of the ADP complex with two metals bound

Cc1cc2nc3c(=O)[nH]c(=O)nc-3n(C[C@H](O)[C@H](O)[C@H](O)COP(=O)(O)OP(=O)(O)OC[C@H]3O[C@@H](n4cnc5c(N)ncnc54)[C@H](O)[C@@H]3O)c2cc1C [FAD]
UV-visible spectrum of protein as isolated [2]: purified as yellow, flavin‐bound forms (holoproteins) | FAD pyrophosphatase assay, FMN fluorescence [3]: all nonyellow Ftps showed single‐turnover kinetics of FAD pyrophosphatase activity | UV-visible spectrum of protein as isolated [4]: purified as yellow, flavin‐bound forms (holoproteins) | fluorescence decrease on FAD binding; flavinylation gel [5]: wild‐type Ftp_Ec (in orange) binds FAD as demonstrated by a decrease in the emission fluorescence | FAD pyrophosphatase assay, FMN fluorescence [6]: all nonyellow Ftps showed single‐turnover kinetics of FAD pyrophosphatase activity | FAD pyrophosphatase assay, FMN fluorescence [7]: all nonyellow Ftps showed single‐turnover kinetics of FAD pyrophosphatase activity

Cc1cc2nc3c(=O)[nH]c(=O)nc-3n(C[C@H](O)[C@H](O)[C@H](O)COP(=O)(O)O)c2cc1C [FMN]
crystal structure, 1.76 A [8]: The modified threonine (T225) lies at the N‐terminal end of the C‐terminal alpha helix
